Among the data in US12637478B2, “Compound, preparation method thereof, and antibiotic composition comprising same” (priority 2020, dated 2026) are MIC values, retold here.

The MIC is the lowest concentration found to suppress growth.

Experiment [1] deals with S. aureus^MS. Put plainly: MIC by broth microdilution (aerobic pathogens), test strain 1. The format is cell-based. The note with it: Staphylococcus aureus. The method, then:
(§1) The antibacterial activity of the compounds of Examples 1 to 48 of the present invention against aerobic pathogens were evaluated by measuring the minimum concentration of the antibiotic capable of inhibiting bacterial growth by 90% compared to the growth of the non-drug treated control group. MIC was measured by the broth microdilution method based on CLSI standards [Reference: Clinical and Laboratory Standards Institute Document. (2000) Methods for Dilution Antimicrobial Susceptibility Test for Bacteria that Grow Aerobically-Fifth Edition: M7-A5. CLSI, Villanova, PA].
(§2) All 13 strains such as methicillin susceptible Staphylococcus aureus (MSSA), methicillin resistant Staphylococcus aureus (MRSA), Vancomycin resistant Staphylococcus aureus (VRSA), Staphylococcus epidermidis, methicillin resistant Staphylococcus epidermidis, Enterococcus faecalis, Vancomycin resistant Enterococcus faecalis, Enterococcus faecium, Vancomycin resistant Enterococcus faecium were used.
A general note: Broth dilution looks for growth in wells or tubes with falling amounts of substance.

Experiment [2] deals with S. aureus^MS. Put plainly: MIC by broth microdilution (aerobic pathogens), test strain 2. The note with it: Staphylococcus aureus. It counts as cell-based. On the procedure: as §1, §2
The test system of another experiment is S. aureus^MR. Put plainly: MIC by broth microdilution (aerobic pathogens), test strain 3. It counts as cell-based, Methicillin resistant Staphylococcus aureus. The note with it: Staphylococcus aureus. The method, then:
as §1, §2

Another experiment concerns S. aureus^VR. Put plainly: MIC by broth microdilution (aerobic pathogens), test strain 4. To be noted: Staphylococcus aureus. The format is cell-based, Vancomycin resistant Staphylococcus aureus. The method, then: as §1, §2
The subject of the next experiment is S. epidermis. Put plainly: MIC by broth microdilution (aerobic pathogens), test strain 5. It counts as cell-based. To be noted: Staphylococcus epidermidis. On the procedure: as §1, §2
The subject of a further experiment is S. epidermis^MR. Put plainly: MIC by broth microdilution (aerobic pathogens), test strain 6. The format is cell-based, Methicillin resistant Staphylococcus epidermidis. The note with it: Staphylococcus epidermidis. On the procedure: as §1, §2
Another experiment concerns E. faecalis. Put plainly: MIC by broth microdilution (aerobic pathogens), test strain 7. The format is cell-based. To be noted: Enterococcus faecalis. On the procedure:
as §1, §2

The next experiment deals with E. faecalis^VanA. Put plainly: MIC by broth microdilution (aerobic pathogens), test strain 8. It counts as cell-based, Vancomycin resistant Enterococcus faecalis. To be noted: Enterococcus faecalis. On the procedure: as §1, §2
For the next experiment, the system named is E. faecalis^LinR. Put plainly: MIC by broth microdilution (aerobic pathogens), test strain 9. The format is cell-based, Linezolid resistant Enterococcus faecalis. To be noted: Enterococcus faecalis. The method, then: as §1, §2
In another experiment the test system is E. faecium. Put plainly: MIC by broth microdilution (aerobic pathogens), test strain 10. It counts as cell-based. To be noted: Enterococcus faecium. The method, then: as §1, §2
Another experiment deals with E. faecium^LinR. Put plainly: MIC by broth microdilution (aerobic pathogens), test strain 12. The format is cell-based, Linezolid resistant Enterococcus faecium. To be noted: Enterococcus faecium. On the procedure:
as §1, §2

In a further experiment the test system is C. difficile 9689. Put plainly: MIC by agar dilution against Clostridioides difficile, test strain 13. The format is cell-based.
For a further experiment, the system named is C. difficile 152. Put plainly: MIC by agar dilution against Clostridioides difficile, test strain 14. It counts as cell-based. A general note: Agar dilution tests growth on a series of plates holding different concentrations.
For another experiment, the system named is C. difficile 159. Put plainly: MIC by agar dilution against Clostridioides difficile, test strain 15. The format is cell-based.
Another experiment concerns C. difficile 161. Put plainly: MIC by agar dilution against Clostridioides difficile, test strain 16. It counts as cell-based.
The next experiment has as its system C. difficile 173. Put plainly: MIC by agar dilution against Clostridioides difficile, test strain 17. It counts as cell-based. The note with it: test strain 17, C. difficile 173, anaerobic, agar dilution, read-out: MIC.
The next experiment concerns C. difficile 174. Put plainly: MIC by agar dilution against Clostridioides difficile, test strain 18. The format is cell-based.
For the next experiment, the system named is C. difficile 181. Put plainly: MIC by agar dilution against Clostridioides difficile, test strain 19. The format is cell-based. To be noted: test strain 19, C. difficile 181, anaerobic, agar dilution, read-out: MIC.
The subject of the next experiment is E. faecium^VRE. Put plainly: MIC by broth microdilution (aerobic pathogens), test strain 11. It counts as cell-based, Vancomycin resistant Enterococcus faecium. The note with it: Enterococcus faecium. The method, then: as §1, §2
The mark [3] stands for this setting: test strain 1, S. aureus^MS, read-out: MIC.
The mark [4] stands for this setting: test strain 2, S. aureus^MS, read-out: MIC.
Where [5] appears, read: test strain 3, S. aureus^MR (methicillin resistant), read-out: MIC.
The mark [6] stands for this setting: test strain 4, S. aureus^VR (vancomycin resistant), read-out: MIC.
Where [7] appears, read: test strain 5, S. epidermis, read-out: MIC.
Where [8] appears, read: test strain 6, S. epidermis^MR (methicillin resistant), read-out: MIC.
[9] abbreviates: test strain 7, E. faecalis, read-out: MIC.
Where [10] appears, read: test strain 8, E. faecalis^VanA (vancomycin resistant), read-out: MIC.
Setting [11] is: test strain 9, E. faecalis^LinR (linezolid resistant), read-out: MIC.
Where [12] appears, read: test strain 10, E. faecium, read-out: MIC.
Setting [13] is: test strain 12, E. faecium^LinR (linezolid resistant), read-out: MIC.
Setting [14] is: test strain 13, C. difficile 9689, anaerobic, agar dilution, read-out: MIC.
The mark [15] stands for this setting: test strain 14, C. difficile 152, anaerobic, agar dilution, read-out: MIC.
Where [16] appears, read: test strain 15, C. difficile 159, anaerobic, agar dilution, read-out: MIC.
[17] abbreviates: test strain 16, C. difficile 161, anaerobic, agar dilution, read-out: MIC.
[18] abbreviates: test strain 18, C. difficile 174, anaerobic, agar dilution, read-out: MIC.
Setting [19] is: test strain 11, E. faecium^VRE (vancomycin resistant), read-out: MIC.

Values after ≈ are worked out from the molar mass of the structure shown. Read-outs that look alike come from different tables or passages of the source.

As to `C/C=C1\NC(=O)[C@H]([C@@H](C)O)NC(=O)c2csc(n2)-c2ccc(-c3nc(-c4nc(C(=O)NC5(C(=O)NCCCB(O)O)CC5)cs4)cs3)nc2-c2csc(n2)[C@H]([C@@H](C)O)NC(=O)c2csc(n2)[C@H](C(C)C)NC(=O)c2csc1n2` [Compound 10], the MIC in the experiment on S. aureus^MS [1] (setting [3]) was 0.125 µg/mL (≈ 0.107 µM); in the experiment on S. aureus^MS [2] (setting [4]) it was 0.0625 µg/mL (≈ 0.0533 µM); with S. aureus^MR (setting [5]), 0.5 µg/mL (≈ 0.427 µM); in the experiment with S. aureus^VR (setting [6]) it was 0.5 µg/mL (≈ 0.427 µM); with S. epidermis (setting [7]), 0.0625 µg/mL (≈ 0.0533 µM); in the experiment with S. epidermis^MR (setting [8]), 0.125 µg/mL (≈ 0.107 µM). Besides, the minimal inhibitory concentration (MIC) came to 0.25 µg/mL (≈ 0.213 µM) in the experiment on E. faecalis (setting [9]); 0.25 µg/mL (≈ 0.213 µM) in the experiment on E. faecalis^VanA (setting [10]); 0.125 µg/mL (≈ 0.107 µM) in the experiment on E. faecalis^LinR (setting [11]); 0.25 µg/mL (≈ 0.213 µM) in the experiment on E. faecium (setting [12]); 0.5 µg/mL (≈ 0.427 µM) in the experiment with E. faecium^LinR (setting [13]); 0.5 µg/mL (≈ 0.427 µM) in the experiment with C. difficile 9689 (setting [14]). Besides, the minimal inhibitory concentration (MIC) worked out at 0.06 µg/mL (≈ 0.0512 µM) with C. difficile 152 (setting [15]); 0.25 µg/mL (≈ 0.213 µM) with C. difficile 159 (setting [16]); 0.125 µg/mL (≈ 0.107 µM) in the experiment on C. difficile 161 (setting [17]); 0.06 µg/mL (≈ 0.0512 µM) with C. difficile 173; 0.06 µg/mL (≈ 0.0512 µM) in the experiment with C. difficile 174 (setting [18]); 0.25 µg/mL (≈ 0.213 µM) in the experiment on C. difficile 181.

Take `C/C=C(\NC(=O)c1csc(-c2csc(-c3ccc4c(n3)-c3csc(n3)[C@H]([C@@H](C)O)NC(=O)c3csc(n3)[C@H](C(C)C)NC(=O)c3csc(n3)/C(=C/C)NC(=O)[C@H]([C@@H](C)O)NC(=O)c3csc-4n3)n2)n1)C(=O)NCCCN1C(=O)CNC1=O` [Compound 40]: the MIC in the experiment with S. aureus^MS [1] stood at 0.5 µg/mL (≈ 0.408 µM); against S. aureus^MS [2], 0.5 µg/mL (≈ 0.408 µM); against S. aureus^MR it was 1 µg/mL (≈ 0.815 µM); in the experiment with S. aureus^VR, 0.5 µg/mL (≈ 0.408 µM); against S. epidermis it was 0.5 µg/mL (≈ 0.408 µM); against S. epidermis^MR, 0.25 µg/mL (≈ 0.204 µM). Besides, the MIC in the experiment with E. faecalis was 0.25 µg/mL (≈ 0.204 µM); against E. faecalis^VanA it was 0.5 µg/mL (≈ 0.408 µM); against E. faecalis^LinR, 0.5 µg/mL (≈ 0.408 µM); with E. faecium it was 0.5 µg/mL (≈ 0.408 µM); in the experiment with E. faecium^VRE (VRE) it was 1 µg/mL (≈ 0.815 µM); in the experiment with E. faecium^LinR, 1 µg/mL (≈ 0.815 µM). Further, the MIC against C. difficile 9689 (9689) was 1 µg/mL (≈ 0.815 µM); against C. difficile 152 (152), 0.5 µg/mL (≈ 0.408 µM); against C. difficile 159 (159) it was 1 µg/mL (≈ 0.815 µM); with C. difficile 161 (161), 0.5 µg/mL (≈ 0.408 µM); against C. difficile 174 (174), 0.5 µg/mL (≈ 0.408 µM).

`C/C=C(\NC(=O)c1csc(-c2csc(-c3ccc4c(n3)-c3csc(n3)[C@H]([C@@H](C)O)NC(=O)c3csc(n3)[C@H](C(C)C)NC(=O)c3csc(n3)/C(=C/C)NC(=O)[C@H]([C@@H](C)O)NC(=O)c3csc-4n3)n2)n1)C(=O)NCCn1cnc([N+](=O)[O-])n1` [Compound 42]: the MIC was 1 µg/mL (≈ 0.815 µM) in the experiment on S. aureus^MS [1] (setting [3]); 1 µg/mL (≈ 0.815 µM) with S. aureus^MS [2] (setting [4]); 1 µg/mL (≈ 0.815 µM) with S. aureus^MR (setting [5]); 1 µg/mL (≈ 0.815 µM) in the experiment with S. aureus^VR (setting [6]); 0.5 µg/mL (≈ 0.408 µM) in the experiment on S. epidermis (setting [7]); 0.5 µg/mL (≈ 0.408 µM) in the experiment with S. epidermis^MR (setting [8]). Also, the minimal inhibitory concentration (MIC) in the experiment on E. faecalis (setting [9]) is 0.5 µg/mL (≈ 0.408 µM); with E. faecalis^VanA (setting [10]), 0.5 µg/mL (≈ 0.408 µM); with E. faecalis^LinR (setting [11]) it was 0.5 µg/mL (≈ 0.408 µM); in the experiment on E. faecium (setting [12]), 1 µg/mL (≈ 0.815 µM); in the experiment on E. faecium^VRE (setting [19]) it was 1 µg/mL (≈ 0.815 µM); in the experiment on E. faecium^LinR (setting [13]) it was 1 µg/mL (≈ 0.815 µM). The minimal inhibitory concentration (MIC) is 0.5 µg/mL (≈ 0.408 µM) in the experiment with C. difficile 9689 (setting [14]); 0.5 µg/mL (≈ 0.408 µM) with C. difficile 152 (setting [15]); 0.5 µg/mL (≈ 0.408 µM) in the experiment with C. difficile 159 (setting [16]); 1 µg/mL (≈ 0.815 µM) with C. difficile 161 (setting [17]); 0.5 µg/mL (≈ 0.408 µM) in the experiment with C. difficile 173; 0.5 µg/mL (≈ 0.408 µM) in the experiment with C. difficile 174 (setting [18]). In addition, in the experiment on C. difficile 181, the MIC came out at 0.5 µg/mL (≈ 0.408 µM).

Take `C/C=C(\NC(=O)c1csc(-c2csc(-c3ccc4c(n3)-c3csc(n3)[C@H]([C@@H](C)O)NC(=O)c3csc(n3)[C@H](C(C)C)NC(=O)c3csc(n3)/C(=C/C)NC(=O)[C@H]([C@@H](C)O)NC(=O)c3csc-4n3)n2)n1)C(=O)NCCN1CCN(C)CC1` [Compound 46]: the MIC came to 0.5 µg/mL (≈ 0.412 µM) in the experiment with S. aureus^MS [1] (setting [3]); 0.5 µg/mL (≈ 0.412 µM) in the experiment on S. aureus^MS [2] (setting [4]); 1 µg/mL (≈ 0.825 µM) in the experiment on S. aureus^MR (setting [5]); 0.5 µg/mL (≈ 0.412 µM) with S. aureus^VR (setting [6]); 0.25 µg/mL (≈ 0.206 µM) in the experiment with S. epidermis (setting [7]); 0.25 µg/mL (≈ 0.206 µM) in the experiment on S. epidermis^MR (setting [8]). The minimum inhibitory concentration (MIC) with E. faecalis (setting [9]) worked out at 0.5 µg/mL (≈ 0.412 µM); with E. faecalis^VanA (setting [10]), 0.5 µg/mL (≈ 0.412 µM); with E. faecalis^LinR (setting [11]), 0.25 µg/mL (≈ 0.206 µM); in the experiment on E. faecium (setting [12]) it was 0.25 µg/mL (≈ 0.206 µM); in the experiment with E. faecium^VRE (setting [19]), 0.5 µg/mL (≈ 0.412 µM); in the experiment on E. faecium^LinR (setting [13]) it was 0.5 µg/mL (≈ 0.412 µM).
